The text below walks through data of patent US20260234165A1, “MACROCYCLIC COMPOUNDS, PREPARATION METHOD THEREFOR, AND USE THEREOF” (GENFLEET THERAPEUTICS (SHANGHAI) INC., priority 2004, published 2026).

Common to all, as to format: cell-based, human
In one test the test system is NCI-H441 cells. Description: 3D cell proliferation assay (CellTiter Glo-3D), NCI-H441. As to conditions: medium with 2% FBS, read-out: H441 AP IC50. Summed up:
(§1)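 NCI-H441 ([…] lung) and AsPC-1 (KRAS G12D pancreatic) cells, 800 per well, were seeded in RPMI-1640 with 2% FBS and dosed next day with 3.16-fold compound dilutions (0.1% DMSO). After 5 days at 37 °C, CellTiter-Glo 3D luminescence gave inhibition versus DMSO and blank; IC50 from four-parameter fit.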
(In ATP-based viability assays light output follows the ATP content of the culture.)

For test [1], the system named is p-ERK in NCI-H441 cells (KRAS G12V mutation). As to the kind of experiment: Cell p-ERK assay (HTRF) in NCI-H441 cells. Summed up:
(§2)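 In this cellular format, endogenous KRAS-mutant lines grown in RPMI-1640 plus 10% FBS received graded compound concentrations for 3 h at 37 °C. Lysates were incubated 4 h with the phospho-T202/Y204 ERK HTRF antibody pair, and percent inhibition relative to DMSO and blank wells was curve-fitted to give IC50.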
A general note: TR-FRET usually uses a lanthanide donor and a delayed reading to cut background.

The subject of test [2] is p-ERK in AsPC-1 cells (KRAS G12D mutation). As to the kind of experiment: Cell p-ERK assay (HTRF) in AsPC-1 cells. Summed up: as §2
Test [3] deals with AsPC-1 cells (KRAS G12D mutation). As to the kind of experiment: 3D cell proliferation assay (CellTiter Glo-3D), AsPC-1. As to conditions: medium with 2% FBS, read-out: AsPC-1 AP IC50. Summed up: as §1
[4] abbreviates: 3D cell proliferation (CellTiter Glo-3D).
[5] abbreviates: NCI-H441 cells, 3 h compound incubation, HTRF p-ERK T202/Y204, read-out: H441 p-ERK IC50.
The mark [6] stands for this setting: AsPC-1 cells, 3 h compound incubation, HTRF p-ERK T202/Y204, read-out: AsPC-1 p-ERK IC50.
[7] abbreviates: Homo sapiens, NCI-H441, 3D cell proliferation (CellTiter Glo-3D).
The mark [8] stands for this setting: Homo sapiens, NCI-H441, 3 h, NCI-H441 cells, 3 h compound incubation, HTRF p-ERK T202/Y204, read-out: H441 p-ERK IC50.
Where [9] appears, read: Homo sapiens, ASPC1, 3 h, AsPC-1 cells, 3 h compound incubation, HTRF p-ERK T202/Y204, read-out: AsPC-1 p-ERK IC50.
The mark [10] stands for this setting: Homo sapiens, ASPC1, 3D cell proliferation (CellTiter Glo-3D).

Counter-ions that a name gives are not always drawn. Like-named read-outs stand apart in the source and are kept apart here.

In the case of `CCn1c(-c2cc(C#CCN3CC(F)C3)cnc2[C@H](C)OC)c2c3cc(ccc31)-c1csc(n1)C[C@H](NC(=O)[C@H]1[C@H](C)[C@@H]1C)C(=O)N1CCC[C@H](N1)C(=O)OCC(C)(C)C2` (atropisomer, axis not shown; (Ra)) [Compound Z383-1, (1r,2R,3S)—N-((6^3S,4S,Z)—(Ra)-1^2-(5-(3-(3-fluoroazetidin-1-yl)prop-1-yn-1-yl)-2-((S)-1-methoxyethyl)pyridin-3-yl)-1^1-ethyl-10,10-dimethyl-5,7-dioxo-6^1,6^2,6^3,6^4,6^5,6^6-hexahydro-1^1H-8-oxa-2(4,2)-thiazola-1(5,3)-indola-6(1,3)-pyridazinacycloundecaphane-4-yl)-2,3-dimethylcyclopropane-1-carboxamide], the IC50 with NCI-H441 cells (setting [4]) was determined as 6.04 nM; in test [1] (setting [5]), 2.79 nM; in test [2] (setting [6]), 7.39 nM; in test [3] (setting [4]) it was 5.52 nM.

For `C=C1CN(CC#Cc2cnc([C@H](C)OC)c(-c3c4c5cc(ccc5n3CC)-c3csc(n3)C[C@H](NC(=O)[C@H]3[C@H](C)[C@@H]3C)C(=O)N3CCC[C@H](N3)C(=O)OCC(C)(C)C4)c2)C1` [Compound Z1034, (1 r,2R,3S)—N-((6^3S,4S,Z)-1^1-ethyl-1^2-(2-((S)-1-methoxyethyl)-5-(3-(3-methyleneazetidine-1-yl)prop-1-Sn-1-yl)pyridin-3-yl)-10,10-dimethyl-5,7-dioxo-6^1,6^2,6^3,6^4,6^5,6^6-hexahydro-1^1H-8-oxa-2(4.2)-thiazola-1(5,3)-indola-6(1.3)-pyridazinacycloundecaphane-4-yl)-2,3-dimethylcyclopropane-1-carboxamide], the IC50 was 0.28 nM in the test with NCI-H441 cells (setting [4]), 0.29 nM in test [1] (setting [5]), 0.33 nM in test [2] (setting [6]) and 0.2 nM in test [3] (setting [4]).

In the case of `CCn1c(-c2cc([C@H]3CCN4CCOC[C@@H]4C3)cnc2[C@H](C)OC)c2c3cc(ccc31)-c1csc(n1)C[C@H](NC(=O)[C@H]1[C@H](C)[C@@H]1C)C(=O)N1CCC[C@H](N1)C(=O)OCC1(CC1)C2` (single isomer, unassigned) [Compound Z79], the IC50 stood at 6.59 nM in the test on NCI-H441 cells (setting [7]), 9.7 nM in test [1] (setting [8]), 24.1 nM in test [2] (setting [9]) and 19.3 nM in test [3] (setting [10]).

For the compound `CCn1c(-c2cc(C#CCN3CCC(C#N)(c4cccc[n+]4[O-])CC3)cnc2[C@H](C)OC)c2c3cc(ccc31)-c1csc(n1)C[C@H](NC(=O)[C@H]1[C@H](C)[C@@H]1C)C(=O)N1CCC[C@H](N1)C(=O)OCC(C)(C)C2` [Compound Z1054, 2-(4-cyano-1-(3-(5-((6^3S,4S,Z)-4-((2R,3S)-2 3-dimethylcyclopropane-1-carboxamido)-1^1-ethyl-10,10-dimethyl-5,7-dioxo-6^1,6^2,6^3,6^4,6^5,6^6-hexahydro-1^1H-8-oxa-2(4.2)-thiazola-1(5,3)-indola-6(1,3)-pyridazinacycloundecaphane-12-yl)-6-((S)-1-methoxyethyl)pyridin-3-yl)prop-2-yn-1-yl)piperidin-4-yl)pyridine 1-oxide formate], the IC50 in the test with NCI-H441 cells (Homo sapiens, 3D cell proliferation (CellTiter Glo-3D)) came out at 0.15 nM; in test [1] (Homo sapiens, NCI-H441, 3 h, read-out: H441 p-ERK IC50(nM)), 0.25 nM; in test [2] (Homo sapiens, ASPC1, 3 h, read-out: AsPC-1 p-ERK IC50(nM)), 0.16 nM; in test [3] (setting [10]), 0.08 nM.

On to `CCn1c(-c2cc(C#CCN3CCOC[C@@H]3C)cnc2[C@H](C)OC)c2c3cc(ccc31)-c1csc(n1)C[C@H](NC(=O)[C@H]1[C@H](C)[C@@H]1C)C(=O)N1CCCC(N1)C(=O)OCC(C)(C)C2` (atropisomer, axis not shown; (Ra)) [Compound Z814], for which the IC50 was determined as 0.18 nM in the test on NCI-H441 cells (setting [4]), 0.14 nM in test [1] (setting [5]), 0.15 nM in test [2] (setting [6]) and 0.14 nM in test [3] (setting [4]).

On to `CCn1c(-c2cc(N3CCN(C)CC3)cnc2[C@H](C)OC)c2c3cc(ccc31)-c1csc(n1)C[C@H](Nc1nnc3cc(OC)ccn13)C(=O)N1CCC[C@H](N1)C(=O)OCC(C)(C)C2` (atropisomer, axis not shown; (Ra)) [Compound Z777, N-((6^3S,4S,Z)-1^1-ethyl-(Ra)-1^2(2-((S)-1-methoxyethyl)-5-(4-methylpiperazin-1-yl)pyridin-3-yl)-10,10-dimethyl-5,7-dioxo-6^1,6^2,6^3,6^4,6^5,6^6-hexahydro-1^1H-8-oxa-2(4,2)-thiazola-1(5,3)-indola-6(1,3)-pyridazinacycloundecaphane-4-yl)-4-(7-methoxy-[1,2,4]triazolo[4,3-a]pyridin-3-yl)amine], for which the IC50 in the test with NCI-H441 cells (setting [4]) amounted to 18.2 nM; in test [1] (setting [5]), 22.2 nM; in test [2] (setting [6]), 61.9 nM; in test [3] (setting [4]), 87.9 nM.

With `CCn1c(-c2cc(OCC3(N4CCCOCC4)CC3)cnc2[C@H](C)OC)c2c3cc(ccc31)-c1csc(n1)C[C@H](NC(=O)[C@H]1[C@H](C)[C@@H]1C)C(=O)N1CCC[C@H](N1)C(=O)OCC1(CC1)C2` (atropisomer, axis not shown; (Ra)) [Compound Z464, (1r,2R,3,S)—N-((3′S,4′S,Z)—(Ra)-2′-(5-((1-(1,4-oxazepan-4-yl)cyclopropyl)methoxy)-2-((S)-1-methoxyethyl)pyridin-3-yl)-1′-ethyl-5′,7′-dioxospiro[cyclopropane-1,10′-8-oxa-2(4,2)-thiazola-1(5,3)-indola-6(1,3)-pyridazinacycloundecaphan]-4′-yl)-2,3-dimethylcyclopropane-1-carboxamide], the IC50 in the test on NCI-H441 cells (setting [4]) came out at 6.32 nM; in test [1] (setting [5]), 1.9 nM; in test [2] (setting [6]), 3.03 nM; in test [3] (setting [4]), 15 nM.

Consider `CC[C@H](C)C(=O)N[C@H]1Cc2nc(cs2)-c2ccc3c(c2)c(c(-c2cc(OCCN4CCS(=O)(=O)CC4)cnc2[C@H](C)OC)n3CC)CC(C)(C)COC(=O)[C@@H]2CCCN(N2)C1=O` (atropisomer, axis not shown; (Ra)) [Compound Z609, (2S)—N-((6^3S,4S,Z)—(Ra)-1^2-(5-(2-(1,1-dioxidothiomorpholino)ethoxy)-2-((S)-1-methoxyethyl)pyridin-3-yl)-1^1-ethyl-10,10-dimethyl-5,7-dioxo-6^1,6^2,6^3,6^4,6^5,6^6-hexahydro-1^1H-8-oxa-2(4,2)-thiazola-1(5,3)-indola-6(1,3)-pyridazinacycloundecaphane-4-yl)-2-methylbutanamide], for which the half-inhibitory concentration (IC50) with NCI-H441 cells (setting [7]) was 0.22 nM; in test [1] (setting [8]) it was 0.76 nM; in test [2] (setting [9]), 0.76 nM; in test [3] (setting [10]) it was 0.79 nM.

For the compound `CCn1c(-c2cc(C#CCN3CCCOCC3)cnc2[C@H](C)OC)c2c3cc(ccc31)-c1csc(n1)C[C@H](NC(=O)C(C)(C)CC)C(=O)N1CCC[C@H](N1)C(=O)OCC(C)(C)C2` (atropisomer, axis not shown; (Ra)) [Compound Z812, N-((6^3S,4S,Z)—(Ra)-1^2-(5-(3-(1,4-oxazepan-4-yl)prop-1-yn-1-yl)-2-((S)-1-methoxyethyl)pyridin-3-yl)-1^1-ethyl-10,10-dimethyl-5,7-dioxo-6^1,6^2,6^3,6^4,6^5,6^6-hexahydro-1^1H-8-oxa-2(4.2)-thiazola-1(5,3)-indola-6(1,3)-pyridazinacycloundecaphane-4-yl)-2.2-dimethylbutanamide], the IC50 came out at 1.64 nM with NCI-H441 cells (setting [7]), 1.06 nM in test [1] (setting [8]), 1.69 nM in test [2] (setting [9]) and 3.52 nM in test [3] (setting [10]).

Consider `CCn1c(-c2cc(C#CCN3CCCOCC3)cnc2[C@H](C)OC)c2c3cc(ccc31)-c1csc(n1)C[C@H](NC(=O)C1[C@H]3COC[C@@H]13)C(=O)N1CCC[C@H](N1)C(=O)OCC(C)(C)C2` (atropisomer, axis not shown; (Ra)) [Compound Z1030], for which the IC50 with NCI-H441 cells (setting [7]) came out at 0.28 nM; in test [1] (setting [8]) it was 0.17 nM; in test [2] (setting [9]) it was 0.17 nM; in test [3] (setting [10]), 0.39 nM.

Usually IC50 stands for the concentration at which inhibition is half-maximal.
